These results are taken from patent publication US20260015352A1, “METHYLTRANSFERASE INHIBITOR AND USE THEREOF” (CYTOSINLAB THERAPEUTICS CO., LTD., priority 2022, published 2026).

Structures are written as SMILES.

In this experiment the test system is G401 cells. In words: G401 ELISA test. Particulars: Homo sapiens, G-401; G401 cells treated with compounds for 72 hours; ELISA detecting K27 and H3; read-out: G401_ELISA IC50. The class given is cell-based. On the procedure: • Plate Reader: Envision (Perkinelmner); plate shaker: IKA MTS 2/4; plate Washer: BioTek microplate wisher 405 select; Cell counter: Counterstar (Ruiyu-biotech); Cell culture incubator: MCO-15AC (ThermoFisher); Pipette: BioHit Multichannel. Pipette: 0.2-10 μL, 10-300 μL, 50-1200 μL; Centrifuge: Thermo Centrifuge ST 40R; Pure water system: Millipore Milli-Q Reference system; Refrigerator: Haier −80 degree, −20 degree, and 4-degree refrigerators; cell cryopreservation box: Mr. Frosty™ Gradient Cooling Box Cat #5100-0001
• McCoys 5A (Modified) culture medium (ATCC); FBS (Gibco); 0.25% Trypsin/EDTA (Gibco); PBS (Hyclone); Penicillin/Streptomycin(100×) (Gibco); DMSO (Sigma); 384 cell culture plate (Corning); 384 detection plate (Greiner); 96 well plate (compound dilution) (Haimen, Qunchao); T75 Cell Culture Bottle (Corning)
G401 cells were seeded in a 384-well cell culture plate and incubated overnight at 37° C. in a 5% CO2 cell culture incubator, after which the cells were treated with compounds of different concentrations for 72 hours. The 384-well cell culture plate was taken out and upside down in a centrifuge to centrifugeat 300 rpm for 1 minute. After centrifugation, the 384-well cell culture plate was washed twice with PBS, added with lysis solution and lysed for 60 minutes. Then neutralization buffer was added for mixing and incubation was continued for 30 minutes. 20 ul (for detecting K27) and 10 ul (for detecting H3) of cell lysate were extracted from the 384-well cell culture plate and transferred to a 384 ELISA detection plate and incubate overnight at 4° C. The next day, the 384 ELISA plate was taken out and washed 5 times with TBST in a microplate washer. Then, the plate was added with a blocking solution and sealed at room temperature for 1 hour. The blocking solution was discarded and the primary antibody was added and then the plate was incubated at room temperature for 1 hour. After incubation, the plate was washed with TBST 5 times in a microplate washer, then added with secondary antibody and incubated at room temperature for 1 hour. After incubation, the plate was washed with TBST 5 times in a microplate washer, and finally added with color developer for color development. The plate was read with Envision plate reader. The obtained data was converted into inhibition rate using the following calculation method: % Inhibition rate=100−100*(compound absorbance−positive control absorbance)/(negative control absorbance−positive control absorbance), and then the inhibition rate data was subjected to curve fitting using the “logarithmic (inhibitor) and reaction-variable slope (four parameters)” model in GraphPad Prism 5 software.
The inhibition rate of the compound was calculated as follows: […]
The compounds of the present invention were tested according to the above experimental method, and some results were shown in Table 3. The test results were classified by A, B, and C, wherein A represents IC50≤0.1 uM; B represents 0.1 uM<IC50≤1 uM; C represents IC50>1 uM
A general note: ELISA stands for enzyme-linked immunosorbent assay.
In general, IC50 refers to the concentration needed to halve the response being measured. For `COc1nccc2ccc(Nc3ccc([C@H](C)Nc4ncc(CN5CC(C#N)C5)cn4)cc3F)nc12` [PA173], the IC50 was at most 100 nM.
In the case of `C[C@H](Nc1ncc(C(O)C(=O)NC2COC2)cn1)C12CCC(Nc3ccc4ccnc(Cl)c4n3)(CC1)CC2` (stereo partly drawn) [PA174] it was at most 100 nM.
Regarding `COc1nccc2ccc(Nc3ccc([C@H](C)Nc4ncc(CNC5C[S+]([O-])C5)cn4)cc3F)nc12` (stereo partly drawn) [PA175], the IC50 was at most 100 nM.
To `C[C@H](Nc1ncc(CC(=O)NC2COC2)cn1)C12CCC(Nc3ccc4ccnc(Cl)c4n3)(CC1)CC2` [PA176] belongs at most 100 nM.
In the case of `CC(C(=O)N(CCC#N)C1COC1)c1cnc(N[C@@H](C)C23CCC(Nc4ccc5ccnc(Cl)c5n4)(CC2)CC3)nc1` (stereo partly drawn) [PA177] it was at most 100 nM; in that of `Cc1ccc2ccc(NC34CCC([C@H](C)Nc5ncc(CNC6CS(=O)(=O)C6)cn5)(CC3)CC4)nc2c1Cl` [PA179], at most 100 nM.
As for `COc1nccc2ccc(NC34CCC(C(C)Nc5ncc(CC(=O)NC6COC6)cn5)(CC3)CC4)nc12` (stereo not drawn) [PA180], the IC50 was at most 100 nM.
On to `COc1nccc2ccc(Nc3ccc([C@H](C)Nc4ncc(CNCCC#N)cn4)cc3F)nc12` [PA181], for which the concentration for half-maximal inhibition (IC50) is at most 100 nM.
For the molecule `COc1nccc2ccc(Nc3ccc([C@H](C)Nc4ncc(CNC5CCS(=O)(=O)C5)cn4)cc3F)nc12` (stereo partly drawn) [PA182], the concentration for half-maximal inhibition (IC50) was at most 100 nM.
Turning to `Cc1ccc2ccc(NC34CCC(C(C)Nc5ncc(CC(=O)NC6COC6)cn5)(CC3)CC4)nc2c1Cl` (stereo not drawn) [PA183], the IC50 is at most 100 nM.
As for `CC(c1cnc(N[C@@H](C)C23CCC(Nc4ccc5ccnc(Cl)c5n4)(CC2)CC3)nc1)N1CCS(=O)(=O)CC1` (stereo partly drawn) [PA184], the IC50 is at most 100 nM.
In the case of `COc1nccc2ccc(Nc3ccc([C@H](C)Nc4ncc(CC(=O)N(CCC#N)C5COC5)cn4)cc3F)nc12` [PA185], the half-maximal inhibitory concentration (IC50) was at most 100 nM.
In the case of `COc1nccc2ccc(Nc3ccc([C@H](C)Nc4ncc([C@H](C)C(=O)NC5COC5)cn4)cc3F)nc12` [PA186] it was at most 100 nM.
Consider `C[C@H](Nc1ncc(CC2CCS(=O)(=O)CC2)cn1)C12CCC(Nc3ccc4ccnc(Cl)c4n3)(CC1)CC2` [PA187], for which the IC50 is at most 100 nM.
To `C[C@H](Nc1ncc(CNCc2cnoc2)cn1)C12CCC(Nc3ccc4ccnc(Cl)c4n3)(CC1)CC2` [PA188] belongs at most 100 nM.
For `COc1nccc2ccc(Nc3ccc([C@H](C)Nc4ncc(CN5CCN(S(C)(=O)=O)CC5)cn4)cc3F)nc12` [PA189], the half-maximal inhibitory concentration (IC50) is at most 100 nM.
In the case of `COc1nccc2ccc(Nc3ccc([C@H](C)Nc4ncc(C(C)C(=O)NC5COC5)cn4)cc3F)nc12` (stereo partly drawn) [PA190], the IC50 was at most 100 nM.
Turning to `CC(C(=O)NCCC#N)c1cnc(N[C@@H](C)C23CCC(Nc4ccc5ccnc(Cl)c5n4)(CC2)CC3)nc1` (stereo partly drawn) [PA191], the IC50 was at most 100 nM.
With `COc1nccc2ccc(Nc3ccc([C@H](C)Nc4ncc(CC(=O)N(CCC#N)CCC#N)cn4)cc3F)nc12` [PA192], the 50% inhibitory concentration (IC50) was at most 100 nM.
In the case of `COc1nccc2ccc(Nc3ccc([C@H](C)Nc4ncc(CC(=O)NC5COC5)cn4)cc3F)nc12` [PA193], the IC50 was at most 100 nM.
As to `COc1nccc2ccc(Nc3ccc([C@H](C)Nc4ncc(CN5CCS(=O)(=O)CC5)cn4)cc3F)nc12` [PA194], the IC50 is at most 100 nM.
With `COc1nccc2ccc(Nc3ccc([C@H](C)Nc4ncc(CC5CCS(=O)(=O)CC5)cn4)cc3F)nc12` [PA195], the IC50 is at most 100 nM.
Turning to `COc1nccc2ccc(Nc3ccc([C@H](C)Nc4ncc(CNC5CC(C#N)C5)cn4)cc3F)nc12` (stereo partly drawn) [PA196], the IC50 is at most 100 nM.
For the molecule `COc1cccc2ccc(Nc3ccc(CNc4ncc(CC(=O)NC5COC5)cn4)cc3F)nc12` [PA197], the half-inhibitory concentration (IC50) is at most 100 nM.
In the case of `COc1nccc2ccc(Nc3ccc(CNc4ncc(CNCc5cnoc5)cn4)cc3F)nc12` [PA198] it was at most 100 nM; in that of `COc1nccc2ccc(Nc3ccc([C@H](C)Nc4ncc(N5CC(CC#N)C5)cn4)cc3F)nc12` [PA199], at most 100 nM.
To `COc1nccc2ccc(Nc3ccc([C@H](C)Nc4ncc(CC(=O)NCCC#N)cn4)cc3F)nc12` [PA200] belongs at most 100 nM; to `COc1nccc2ccc(Nc3ccc([C@H](C)Nc4ncc(CNC5CC(F)(F)C5)cn4)cc3F)nc12` [PA201], at most 100 nM; to `CC(C(=O)N(CCC#N)CCC#N)c1cnc(N[C@@H](C)C23CCC(Nc4ccc5ccnc(Cl)c5n4)(CC2)CC3)nc1` (stereo partly drawn) [PA202], at most 100 nM.
In the case of `COc1nccc2ccc(Nc3ccc(CNc4ncc(CNCc5cnco5)cn4)cc3F)nc12` [PA203] it was at most 100 nM; in that of `COc1nccc2ccc(Nc3ccc(C(C)Nc4ncc(CC(=O)NC5COC5)cn4)cc3F)nc12` (stereo not drawn) [PA204], at most 100 nM.
As to `COc1nccc2ccc(Nc3ccc([C@H](C)Nc4ncc(C(N)C(=O)NC5COC5)cn4)cc3F)nc12` (stereo partly drawn) [PA205], the 50% inhibitory concentration (IC50) is at most 100 nM.
With `COc1nccc2ccc(Nc3ccc([C@H](C)Nc4ncc(N5CC(C#N)C5)cn4)cc3F)nc12` [PA206], the concentration for half-maximal inhibition (IC50) is at most 100 nM.
To `COc1nccc2ccc(Nc3ccc(CNc4ncc(NCc5cnoc5)cn4)cc3F)nc12` [PA208] belongs 100 to 1000 nM.
On to `C[C@@H](Nc1ncc(CC(=O)NC2COC2)cn1)C12CCC(Nc3ccc4ccnc(Cl)c4n3)(CC1)CC2` [PA209], for which the IC50 lay in the range of 100 to 1000 nM.
To `COc1nccc2ccc(Nc3ccc([C@H](C)Nc4ncc(/C=C/C5CCS(=O)(=O)CC5)cn4)cc3F)nc12` [PA210] belongs 100 to 1000 nM; to `COc1nccc2ccc(Nc3ccc(CNc4ncc(CCNC5COC5)cn4)cc3)nc12` [PA211], 100 to 1000 nM; to `COc1nccc2ccc(Nc3ccc([C@H](C)Nc4ncc(CC(=O)NC5CS(=O)(=O)C5)cn4)cc3F)nc12` [PA212], 100 to 1000 nM.
With `COc1nccc2ccc(Nc3ccc([C@H](C)Nc4ncc(C=CC5CCS(=O)(=O)CC5)cn4)cc3F)nc12` [PA213], the 50% inhibitory concentration (IC50) lay within 100 to 1000 nM.
For the molecule `COc1nccc2ccc(Nc3ccc([C@H](C)Nc4ncc(N5CCC(C#N)CC5)cn4)cc3F)nc12` [PA214], the IC50 was in the range of 100 to 1000 nM.
Take `COc1nccc2ccc(Nc3ccc(CNc4ncc(CC(=O)N5CCC56COC6)cn4)cc3F)nc12` [PA215]: the IC50 lay in the range of 100 to 1000 nM.
As for `COc1nccc2ccc(Nc3ccc([C@H](C)Nc4ncc(CC(=O)NC5CC(F)(F)C5)cn4)cc3F)nc12` [PA216], the concentration for half-maximal inhibition (IC50) lay in the range of 100 to 1000 nM.
In the case of `COc1nccc2ccc(Nc3ccc([C@H](C)Nc4ncc(N(C)C(=O)NC5COC5)cn4)cc3F)nc12` [PA217] it was 100 to 1000 nM.
To `COc1nccc2ccc(Nc3ccc([C@H](CO)Nc4ncc(CC(=O)NC5COC5)cn4)cc3F)nc12` [PA218] belongs 100 to 1000 nM.
Regarding `COc1nccc2ccc(Nc3ccc([C@H](C)Nc4ncc(CCc5cc(C#N)n[nH]5)cn4)cc3F)nc12` [PA219], the half-maximal inhibitory concentration (IC50) lay within 100 to 1000 nM.
In the case of `COc1nccc2ccc(Nc3ccc(CNc4ncc(CNCC5CCOC5)cn4)cc3F)nc12` (stereo not drawn) [PA220] it was 100 to 1000 nM; in that of `COc1nccc2ccc(Nc3ccc(CNc4ncc(CNCc5ccon5)cn4)cc3F)nc12` [PA221], 100 to 1000 nM.
Turning to `COc1nccc2ccc(Nc3ccc([C@H](C)Nc4ncc(CC(=O)NC5CCCC5OC)cn4)cc3F)nc12` (stereo partly drawn) [PA222], the IC50 lay in the range of 100 to 1000 nM.
For `COc1nccc2ccc(Nc3ccc([C@H](C)Nc4ncc(CCNC5CC(F)(F)C5)cn4)cc3F)nc12` [PA223], the IC50 fell in the range of 100 to 1000 nM.
Turning to `COc1nccc2ccc(Nc3ccc(CNc4ncc(CC(=O)N5CCC(C#N)CC5)cn4)cc3F)nc12` [PA224], the IC50 is 100 to 1000 nM.
For `COc1nccc2ccc(Nc3ccc([C@H](C)Nc4ncc([C@@H](C)C(=O)NC5COC5)cn4)cc3F)nc12` [PA225], the half-inhibitory concentration (IC50) is 100 to 1000 nM.
To `COc1nccc2ccc(Nc3ccc(CNc4ncc(CC(=O)N5CCOCC5)cn4)cc3F)nc12` [PA226] belongs 100 to 1000 nM; to `COc1nccc2ccc(Nc3ccc(CNc4ncc(CN5CCC(O)CC5)cn4)cc3F)nc12` [PA227], 100 to 1000 nM; to `O=C(Cc1ccc(NCC23CCC(Nc4ccc5ccnc(Cl)c5n4)(CC2)CC3)nc1)NC1COC1` [PA228], 100 to 1000 nM.
As for `COc1nccc2ccc(NC34CCC(CNc5ncc(CC(=O)NC6COC6)cn5)(CC3)OC4)nc12` [PA229], the IC50 fell in the range of 100 to 1000 nM.
As for `COc1nccc2ccc(Nc3ccc(CNc4ncc(CC(=O)N5CCC(O)CC5)cn4)cc3F)nc12` [PA230], the IC50 lay in the range of 100 to 1000 nM.
On to `COc1nccc2ccc(Nc3ccc(CNc4ncc(CC(N)=O)cn4)cc3F)nc12` [PA231], for which the concentration for half-maximal inhibition (IC50) was in the range of 100 to 1000 nM.
